Test results reported in patent publication US7153930B1, “Peptide transport” (priority 1999, dated 2006).
Each block holds one molecule with its values, some of them ahead of it. Non-standard residues stand in square brackets, D forms with d. Residues, ends and D or L forms follow the SMILES beside them. *: point of attachment. Cholyl = C[C@H](CCC(=O)*)[C@H]1CC[C@H]2[C@@H]3[C@H](O)C[C@@H]4C[C@H](O)CC[C@]4(C)[C@H]3C[C@H](O)[C@]12C; pGlu = O=C1CC[C@@H](C(=O)O)N1

Key:
gastric acid secretion [1] = settings: rat, in vivo
Description: (§1) Experiments were carried out on male Wistar rats of 250–350 g, which had been starved overnight, and which were anaesthetized with an I.P. injection of Sagatal (pentobarbitone sodium, obtainable from Rhône Mérieux, Harlow Essex, UK) of dosage appropriate to the body weight. The criterion for anaesthesia was abolition of the hind limb flexor withdrawal reflex. The following surgical procedures were then carried out: tracheostomy to allow artificial ventilation if required, cannulation of the carotid artery to monitor blood pressure, cannulation of the external jugular vein to allow for the slow bolus infusion of drugs, intubation of the stomach at the pyloro-duodenal junction after ligation of the oesophagus to measure gastric acid secretion, cannulation of the terminal ileum and/or of the proximal jejunum distal to the ligament of Treitz for infusion of peptide hormones.
(§2) Gastric acid secretion was measured by the following method. 1.0 ml of glycine/mannitol buffer (1 part glycine (0.3M) and 4 parts D-mannitol (0.3M) adjusted to pH 6.5) was instilled into the stomach and left for 15 min when withdrawal was made. The HCl secreted was determined by back titration with 10 mM NaOH to pH 6.5.
(§3) The data are expressed as the mean±S.D. μmol HCl secreted by the stomach over the stated time period in response to the experimental procedure.

gastric acid secretion [2] = test: Gastric acid secretion in anaesthetized rats after I.V., intra-ileal or jejunal administration of gastrin peptides (back titration of HCl); settings: for increase in gastric acid secretion with respect to baseline: P=0.001; for effect on gastric acid secretion: unconjugated gastrin without prior injection of the respective conjugate; for absorption across the ileal wall into the circulation: cholate conjugated form introduced into the ileum; for stimulation of the peak gastric acid secretion: 5 rats
Description: as §1, §2, §3

absorption from the upper jejunum (gastric acid secretion [1]): lack of absorption
Molecule: CSCC[C@H](NC(=O)[C@@H](N)Cc1c[nH]c2ccccc12)C(=O)N[C@@H](CC(=O)O)C(=O)N[C@@H](Cc1ccccc1)C(N)=O [G4, Trp-Met-Asp-Phe amide]
absorption of unconjugated gastrin (gastric acid secretion [1]): absorption of the unconjugated gastrin occurred | increase in gastric acid secretion with respect to baseline (gastric acid secretion [2]; first intravenous injection (start of experiment)): 0.42±0.10 μmol 15 min^1 | fall in the mean gastric acid level (gastric acid secretion [2]; ileal infusion, 2500 μg kg^−1 in 1.0 ml isotonic saline, 6 experiments, P=0.043): 0.23 ± 0.21 µmol/h | increase in gastric acid secretion with respect to baseline (gastric acid secretion [2]; second intravenous injection (end of experiment)): 0.50±0.14 μmol 15 min^1 | effect on gastric acid secretion (gastric acid secretion [2]): without effect on gastric acid secretion

Molecule: CSCC[C@H](NC(=O)[C@H](Cc1c[nH]c2ccccc12)NC(=O)CC[C@@H](C)[C@H]1CC[C@H]2[C@@H]3[C@H](O)C[C@@H]4C[C@H](O)CC[C@]4(C)[C@H]3C[C@H](O)[C@]12C)C(=O)N[C@@H](CC(=O)O)C(=O)N[C@@H](Cc1ccccc1)C(N)=O [G4-CA, cholate-Trp-Met-Asp-Phe amide]
absorption across the ileal wall into the circulation (gastric acid secretion [2]): absorption of the conjugated gastrin across the ileal wall into the circulation occurred

Molecule: CSCC[C@H](NC(=O)[C@H](Cc1c[nH]c2ccccc12)NC(=O)CNC(=O)[C@H](Cc1ccc(O)cc1)NC(=O)[C@H](C)NC(=O)[C@H](CCC(=O)O)NC(=O)[C@H](CCC(=O)O)NC(=O)[C@H](CCC(=O)O)NC(=O)CC[C@@H](C)[C@H]1CC[C@H]2[C@@H]3[C@H](O)C[C@@H]4C[C@H](O)CC[C@]4(C)[C@H]3C[C@H](O)[C@]12C)C(=O)N[C@@H](CC(=O)O)C(=O)N[C@@H](Cc1ccccc1)C(N)=O [G10-CA, cholate-Glu-Glu-Glu-Ala-Tyr-Gly-Trp-Met-Asp-Phe-amide] (Cholyl-EEEAYGWMDF-NH2)
absorption across the ileal wall into the circulation (gastric acid secretion [2]): absorption of the conjugated gastrin across the ileal wall into the circulation occurred

Molecule: CC[C@H](C)[C@H](NC(=O)[C@H](Cc1ccccc1)NC(=O)[C@H](Cc1c[nH]cn1)NC(=O)[C@H](CCC(N)=O)NC(=O)[C@@H]1CCCN1C(=O)CNC(=O)[C@H](CCC(N)=O)NC(=O)[C@@H]1CCCN1C(=O)CNC(=O)[C@H](CC(C)C)NC(=O)[C@H](CCC(=O)O)NC(=O)CC[C@@H](C)[C@H]1CC[C@H]2[C@@H]3[C@H](O)C[C@@H]4C[C@H](O)CC[C@]4(C)[C@H]3C[C@H](O)[C@]12C)C(=O)N[C@@H](C)C(=O)N[C@@H](CC(=O)O)C(=O)N[C@@H](CC(C)C)C(=O)N[C@@H](CO)C(=O)N[C@@H](CCCCN)C(=O)N[C@@H](CCCCN)C(=O)N[C@@H](CCC(N)=O)C(=O)N[C@@H](CCCNC(=N)N)C(=O)N1CCC[C@H]1C(=O)N1CCC[C@H]1C(=O)N[C@@H](CCSC)C(=O)N[C@@H](CCC(=O)O)C(=O)N[C@@H](CCC(=O)O)C(=O)N[C@@H](CCC(=O)O)C(=O)N[C@@H](CCC(=O)O)C(=O)N[C@@H](CCC(=O)O)C(=O)N[C@@H](C)C(=O)N[C@@H](Cc1ccc(O)cc1)C(=O)NCC(=O)N[C@@H](Cc1c[nH]c2ccccc12)C(=O)N[C@@H](CCSC)C(=O)N[C@@H](CC(=O)O)C(=O)N[C@@H](Cc1ccccc1)C(N)=O [G34-CA] (Cholyl-ELGPQGPQHFIADLSKKQRPPMEEEEEAYGWMDF-NH2)
absorption across the ileal wall into the circulation (gastric acid secretion [2]): absorption of the conjugated gastrin across the ileal wall into the circulation occurred

Molecule: H-EEEAYGWMDF-NH2 [G10, H-Glu-Glu-Glu-Ala-Tyr-GlyTrp-Met-Asp-Phe-amide]
absorption of unconjugated gastrin (gastric acid secretion [1]): absorption of the unconjugated gastrin occurred | stimulation of the peak gastric acid secretion (gastric acid secretion [2]; I.V. 36 μg kg^−1, initial injection, P=0.036): 1.28 ± 0.93 µmol | stimulation of the peak gastric acid secretion (gastric acid secretion [2]; I.V. 36 μg kg^−1, second injection at the end of the experiment, P=0.048): 1.45 ± 1.15 µmol | change in gastric acid secretion (gastric acid secretion [2]; infusion into the ileum, 6600 μg kg^−1 in 1.0 ml, not significant (P=0.23)): −1.22±1.93 μmol 180 min^−1 | effect on gastric acid secretion (gastric acid secretion [2]): without effect on gastric acid secretion

Molecule: pGlu-Leu-Gly-Pro-Gln-Gly-Pro-Gln-His-Phe-Ile-Ala-Asp-Leu-Ser-Lys-Lys-Gln-Arg-Pro-Pro-Met-Glu-Glu-Glu-Glu-Glu-Ala-Tyr-GlyTrp-Met-Asp-Phe-NH2 ([pGlu]LGPQGPQHFIADLSKKQRPPMEEEEEAYGWMDF-NH2; ends and bridges not checked) [G34]
absorption of unconjugated gastrin (gastric acid secretion [1]): absorption of the unconjugated gastrin occurred | stimulation of the peak gastric acid secretion (gastric acid secretion [2]; I.V. 10 ng kg^−1, second injection at the end of the experiment, P=0.0005): 0.23 ± 0.051 µmol | stimulation of the peak gastric acid secretion (gastric acid secretion [2]; I.V. near threshold dose 10 ng kg^−1, initial injection, P=0.0008): 0.14 ± 0.034 µmol | change in mean gastric acid secretion (gastric acid secretion [2]; infusion into the ileum, 10.5 mg kg^−1 in 1.0 ml, not significant (P=0.16)): 0.202±0.262 μmol 180 min^−1 | mean increase in gastric acid secretion (gastric acid secretion [2]; intraileal infusion of G34 subsequent to intraileal infusion of G34-CA, 4 rats, P=0.004): 5.68±1.38 μmol 180 min^−1 | effect on gastric acid secretion (gastric acid secretion [2]): without effect on gastric acid secretion
